Laboratory results from article PMC10495264 (Nature Cell Biology, 2023).
Where “and” joins values, the source holds several entries; their conditions need not be identical. Equal entries are not always repeated.

Assays:
TORC1 [1] = assay: TORC1 activity in yeast cells, p-Sch9^T737/Sch9 immunoblot; assay type: cell-based, Saccharomyces cerevisiae; conditions: for p-Sch9(T737)/Sch9 (relative TORC1 activity), Mean: yeast, untreated = 1, n = 4, Fig. 2c
[2] = test system: Tor1 and Fas1 malonylation; assay: Malonylation of immunopurified HA-Tor1 and Fas1-HA (anti-Mal-K) from yeast cells; assay type: cell-based, Saccharomyces cerevisiae
Method: For the yeast co-immunoprecipitations experiments, cells were collected by filtration and immediately frozen in liquid nitrogen. […] Total cell extracts were recovered from the beads and cleared by centrifugation. At this stage, samples were taken for input analysis and denatured with a Laemmli-based sample buffer (350 mM Tris–HCl pH 6.8, 30% glycerol, 600 mM DTT, 10% SDS and 0.2 mg ml^−1 bromophenol blue). The cleared lysates (10–20 mg) were incubated for 2 h at 4 °C with magnetic beads pre-conjugated with anti-HA (cat. no. 88837, Pierce). The beads were then washed five times with high salt lysis buffer (50 mM Tris–HCl pH 7.5, 300 mM NaCl, 10% glycerol and 0.1% Nonidet P40) and eventually resuspended in 20 μl lysis buffer and 20 μl 2×Laemmli buffer.

mTORC1 = mTORC1 activity in MCF-7 cells, p-S6K^T389/S6K immunoblot; assay type: cell-based, human; conditions: cerulenin 50 μM 2 or 4 h
Mal-CoA levels = assay: fapR/fapOp-yeGFP Mal-CoA reporter system, GFP immunoblot; assay type: cell-based, Saccharomyces cerevisiae; conditions: yeast, untreated = 1, n = 4, Fig. 2b
[3] = test system: total protein malonylation; assay: Lysine malonylation in yeast cells, Mal-K/Adh1 immunoblot; assay type: cell-based, Saccharomyces cerevisiae; conditions: cerulenin 20 μM, 2 h, wt Ctrl = 1, Fig. 3i
[4] = test system: mTOR and FASN malonylation; assay: Malonylation of immunopurified mTOR and FASN (anti-Mal-K) from HEK293FT cells; assay type: cell-based, human
Method: Protein malonylation was assayed by immunoblotting using a Mal-K-specific antibody.

Snf1 (yeast AMPK) = assay: Snf1 activation in yeast cells, p-Snf1^T210/His immunoblot; assay type: cell-based, Saccharomyces cerevisiae; conditions: cerulenin 20 μM, 2 h, wt Ctrl = 1, Fig. 3h
[5] = biological target: T1, mTORC1 containing mTOR^K1218R; assay: mTORC1 IVK with SBP-tagged mTOR^K1218R and HA–Raptor; assay type: biochemical, human; conditions: presence or absence of 5 mM Mal-CoA
T1 construct: expressed in transfected cells; host or cells: HEK293FT
Method: Briefly, cells of a near-confluent well of a six-well plate were lysed in CHAPS IP buffer (50 mM Tris pH 7.5, 0.3% CHAPS detergent, 150 mM NaCl, 50 mM NaF, 2 mM Na-vanadate and 0.011 g ml^−1 β-glycerophosphate) supplemented with 1×PhosSTOP phosphatase inhibitors and 1×EDTA-free cOmplete protease inhibitors for 10 min on ice, and the samples were clarified by centrifugation (20,000g, 15 min, 4 °C). Each supernatant was split in three equal fractions and each fraction was incubated (4 °C with rotation) with 20 μl of pre-washed Streptavidin Sepharose (cat. no. 90100484, Cytiva) for 1 h. The beads were then washed three times with CHAPS IP wash buffer (50 mM Tris pH 7.5, 0.3% CHAPS, 150 mM NaCl and 50 mM NaF) and either used for IVK assays (‘Mammalian mTORC1 kinase activity assays’ section) or boiled in 2×SDS loading buffer (5 min, 95 °C) and analysed by SDS–PAGE and immunoblotting to assess the stability of the mTOR complex.
In vitro activity assays were performed as described earlier for endogenous mTOR complexes.
Endogenous mTOR was immunoprecipitated in the presence or absence of 1 mM Mal-CoA (added directly in the lysates 5 min previous to addition of the antibody). Co-immunoprecipitation of Raptor and mLST8 assayed by immunoblotting; n = 2 independent experiments. c, Mal-CoA inhibits mTORC1 independently from mTOR malonylation. […] Data are the mean ± s.d. (a) or mean ± s.e.m. […]

Src = biological target: T2, Src (Homo sapiens, UniProt P12931); assay: Mammalian Src kinase activity assay (IVK, Glo1 substrate); assay type: biochemical; conditions: for In vitro kinase assay Src, p-Glo(Y316)/Glo, Mean: 0 mM = 1; for In vitro kinase assay Src, p-Glo(Y316)/Glo: Replicates 1-3, 0 mM = 1 (Ext. Fig. 10g)
T2 construct: purchased ProQinase 0200-0000-1
T2 sequence (P12931 whole entry): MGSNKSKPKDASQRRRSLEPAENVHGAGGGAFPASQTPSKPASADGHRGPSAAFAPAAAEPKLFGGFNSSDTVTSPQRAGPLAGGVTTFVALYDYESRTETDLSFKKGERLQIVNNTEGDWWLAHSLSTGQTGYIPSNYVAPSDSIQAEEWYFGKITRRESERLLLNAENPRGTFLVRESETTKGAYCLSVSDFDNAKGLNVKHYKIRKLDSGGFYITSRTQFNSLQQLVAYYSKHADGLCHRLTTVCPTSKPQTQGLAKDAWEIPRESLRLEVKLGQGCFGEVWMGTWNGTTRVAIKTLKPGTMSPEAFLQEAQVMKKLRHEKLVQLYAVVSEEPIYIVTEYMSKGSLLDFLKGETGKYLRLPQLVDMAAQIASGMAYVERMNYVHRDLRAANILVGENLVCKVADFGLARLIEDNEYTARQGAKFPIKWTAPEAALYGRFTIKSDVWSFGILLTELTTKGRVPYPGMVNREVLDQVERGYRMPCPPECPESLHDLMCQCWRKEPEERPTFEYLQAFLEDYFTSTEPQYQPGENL
Method: In vitro assays for phosphorylation of Glo1 by Src were performed as described previously. […] The phosphorylation reaction was stopped by the addition of 2×Laemmli buffer and boiling the samples for 5 min at 95 °C. The samples were run on SDS–PAGE gels and immunoblotted for Src-dependent phosphorylation of Glo1 at Y316 using a homemade antibody.

TORC1 [6] = biological target: T3, TORC1 (Saccharomyces cerevisiae, UniProt P35169); assay: Yeast TORC1 kinase activity assays (radioactive IVK, Lst4^Loop substrate); assay type: biochemical; conditions: for In vitro TORC1 kinase assay - CoA compounds, relative activity, Mean: Fig. 8b; for In vitro TORC1 kinase assay - Mal-CoA/ATP competition, relative activity, Mean: Fig. 8h
T3 construct: made in house; host or cells: S. cerevisiae strain NIC005 ([RL170-2c] LEU2:GFP-TOR1)
Method: TORC1 was purified from yeast cells and radioactive IVK assays were performed essentially as previously described. Briefly, kinase reactions (total volume, 30 μl) were performed with 400 ng of purified His6–Lst4^Loop protein and 60 ng TORC1 in kinase buffer (50 mM HEPES NaOH pH 7.5 and 150 mM NaCl). […] All reactions were carried out at 30 °C for 10 min and stopped with the addition of 3×sample buffer (50 mM Tris–HCl pH 6.8, 5% SDS, 0.05% bromophenol blue, 630 mM DTT and 30% glycerol) and heating at 65 °C for 10 min. Proteins were separated by SDS–PAGE and stained in-gel with SYPRO Ruby (S4942, Sigma-Aldrich) as the loading control. Substrate phosphorylation was analysed by autoradiography using a Typhoon FLA 9500 phosphorimager (GE Healthcare) and the raw density of the signals was quantified using the gel analysis tool of ImageJ.

C/C=C/C/C=C/CCC(=O)[C@H]1O[C@H]1C(N)=O [cerulenin]
p-Sch9(T737)/Sch9, Mean (TORC1 [1]): 0.2682 and 0.4097
TORC1 activity (phosphorylation of Sch9) in vivo (TORC1 [1]; cerulenin-treated yeast, Fig. 2a,c): strongly reduced
p-Sch9(T737)/Sch9 (relative TORC1 activity), Mean (TORC1 [1]; 20 μM cerulenin 2h): 0.4698
p-Sch9(T737)/Sch9 (relative TORC1 activity), Mean (TORC1 [1]; 20 μM cerulenin 3h): 0.1772
p-Sch9(T737)/Sch9 (relative TORC1 activity), Mean (TORC1 [1]; 20 μM cerulenin 4h): 0.1415
lysine malonylation of immunopurified yeast Fas1 ([2]; cerulenin-treated (10 μM, 2 h) vs control): malonylation increasing further
malonylation of immunopurified yeast Tor1 ([2]; control or cerulenin-treated (10 μM, 2 h)): unable to detect malonylation
mTORC1 activity in MCF-7 (mTORC1): downregulates
GFP/Adh1 (relative Mal-CoA levels), Mean (Mal-CoA levels; 20 μM cerulenin 2h): 2.242
GFP/Adh1 (relative Mal-CoA levels), Mean (Mal-CoA levels; 20 μM cerulenin 3h): 5.039
GFP/Adh1 (relative Mal-CoA levels), Mean (Mal-CoA levels; 20 μM cerulenin 4h): 7.957
Mal-K/Adh1, Mean ([3]; acc1S1157A yeast): 8.735
Mal-K/Adh1, Mean ([3]; wt yeast): 8.631
lysine malonylation of immunopurified human FASN ([4]; cerulenin-treated (50 μM, 4 h) vs control): malonylation increasing further
malonylation of immunopurified human mTOR ([4]; control or cerulenin-treated (50 μM, 4 h)): unable to detect malonylation
p-Snf1(T210)/His (Snf1), Mean (Snf1 (yeast AMPK); acc1S1157A yeast): 1.0013
p-Snf1(T210)/His (Snf1), Mean (Snf1 (yeast AMPK); wt yeast): 1.229

CC(C)(COP(=O)(O)OP(=O)(O)OCC1OC(n2cnc3c(N)ncnc32)C(O)C1OP(=O)(O)O)C(O)C(=O)NCCC(=O)NCCSC(=O)CC(=O)O (centres unmarked) [Mal-CoA, malonyl-CoA]
kinase activity of mTORC1 containing non-malonylatable mTOR^K1218R [5]: readily inhibited
IC50 (Src): 3040 µM
In vitro kinase assay Src, p-Glo(Y316)/Glo, Mean (Src; Mal-CoA 0.1 mM): 0.9108
In vitro kinase assay Src, p-Glo(Y316)/Glo (Src; Mal-CoA 0.1 mM): 1.011 and 0.7856 and 0.936
In vitro kinase assay Src, p-Glo(Y316)/Glo, Mean (Src; Mal-CoA 0.5 mM): 0.93
In vitro kinase assay Src, p-Glo(Y316)/Glo (Src; Mal-CoA 0.5 mM): 1.127 and 0.8462 and 0.8162
In vitro kinase assay Src, p-Glo(Y316)/Glo, Mean (Src; Mal-CoA 1 mM): 0.7653
In vitro kinase assay Src, p-Glo(Y316)/Glo (Src; Mal-CoA 1 mM): 0.7803 and 0.7329 and 0.7827
In vitro kinase assay Src, p-Glo(Y316)/Glo, Mean (Src; Mal-CoA 2.5 mM): 0.5664
In vitro kinase assay Src, p-Glo(Y316)/Glo (Src; Mal-CoA 2.5 mM): 0.5574 and 0.682 and 0.4598
In vitro kinase assay Src, p-Glo(Y316)/Glo, Mean (Src; Mal-CoA 5 mM): 0.4682
In vitro kinase assay Src, p-Glo(Y316)/Glo (Src; Mal-CoA 5 mM): 0.5068 and 0.3824 and 0.5156
IC50 (TORC1 [6]): 334 µM
Ki (TORC1 [6]): 760 µM
In vitro TORC1 kinase assay - CoA compounds, relative activity, Mean (TORC1 [6]; compound 0.073 mM, normalised to this concentration): 1
In vitro TORC1 kinase assay - CoA compounds, relative activity, Mean (TORC1 [6]; compound 0.22 mM): 0.8807
In vitro TORC1 kinase assay - CoA compounds, relative activity, Mean (TORC1 [6]; compound 2 mM): 0.6407
In vitro TORC1 kinase assay - CoA compounds, relative activity, Mean (TORC1 [6]; compound 6 mM): 0.5014
In vitro TORC1 kinase assay - Mal-CoA/ATP competition, relative activity, Mean (TORC1 [6]; Mal-CoA 2 mM, ATP 0.015 mM): 0.1115
In vitro TORC1 kinase assay - Mal-CoA/ATP competition, relative activity, Mean (TORC1 [6]; Mal-CoA 2 mM, ATP 0.044 mM): 0.189
In vitro TORC1 kinase assay - Mal-CoA/ATP competition, relative activity, Mean (TORC1 [6]; Mal-CoA 2 mM, ATP 0.4 mM): 0.6161
In vitro TORC1 kinase assay - Mal-CoA/ATP competition, relative activity, Mean (TORC1 [6]; Mal-CoA […], ATP 0.015 mM): 0.1191
In vitro TORC1 kinase assay - Mal-CoA/ATP competition, relative activity, Mean (TORC1 [6]; Mal-CoA […], ATP 0.044 mM): 0.2424
In vitro TORC1 kinase assay - Mal-CoA/ATP competition, relative activity, Mean (TORC1 [6]; Mal-CoA […], ATP 0.4 mM): 0.6289
